Measured values from ChEMBL document CHEMBL4261593, “Synthesis and antibacterial activity of novel 3-O-arylalkylcarbamoyl-3-O-descladinosyl-9-O-(2-chlorobenzyl)oxime clarithromycin derivatives” (2018).
Values after ≈ are worked out from the molar mass of the structure shown.

How the values were obtained:
Type in all cases: functional
Staphylococcus aureus [1] = assay: Antibacterial activity against […] Staphylococcus aureus ATCC 29213 after 24 hrs by broth dilution assay; details: ATCC 29213, 24 h
Staphylococcus aureus [2] = assay: Antibacterial activity against penicillin-resistant Staphylococcus aureus ATCC 31007 after 24 hrs by broth dilution assay; details: ATCC 31007, 24 h
Streptococcus pneumoniae [3] = assay: Antibacterial activity against erythromycin-resistant Streptococcus pneumoniae A22072 expressing mefA gene after 24 hrs by broth dilution assay; details: A22072, 24 h
Streptococcus pneumoniae [4] = assay: Antibacterial activity against erythromycin-resistant Streptococcus pneumoniae B1 expressing ermB gene after 24 hrs by broth dilution assay; details: B1, 24 h
Staphylococcus aureus [5] = assay: Antibacterial activity against erythromycin-susceptible Staphylococcus aureus ATCC 25923 after 24 hrs by broth dilution assay; details: ATCC 25923, 24 h
Staphylococcus aureus [6] = assay: Potency index, ratio of AZM MIC to compound MIC for antibacterial activity against penicillin-resistant Staphylococcus aureus ATCC 31007
Streptococcus pyogenes [7] = assay: Antibacterial activity against erythromycin-susceptible Streptococcus pyogenes 1 after 24 hrs by broth dilution assay; details: Streptococcus pyogenes, 1, 24 h
Bacillus subtilis = assay: Antibacterial activity against penicillin-susceptible Bacillus subtilis ATCC 9372 after 24 hrs by broth dilution assay; details: ATCC 9372, 24 h
Streptococcus pneumoniae [8] = assay: Antibacterial activity against erythromycin-resistant Streptococcus pneumoniae AB11 expressing ermB and mefA genes after 24 hrs by broth dilution assay; details: AB11, 24 h
Pseudomonas aeruginosa = assay: Antibacterial activity against penicillin-susceptible Pseudomonas aeruginosa ATCC 27853 after 24 hrs by broth dilution assay; details: ATCC 27853, 24 h
Staphylococcus aureus [9] = assay: Potency index, ratio of CAM MIC to compound MIC for antibacterial activity against penicillin-resistant Staphylococcus aureus ATCC 31007
Escherichia coli = assay: Antibacterial activity against penicillin-susceptible Escherichia coli ATCC 25922 after 24 hrs by broth dilution assay; details: ATCC 25922, 24 h
Streptococcus pyogenes [10] = assay: Antibacterial activity against erythromycin-resistant Streptococcus pyogenes 2 after 24 hrs by broth dilution assay; details: Streptococcus pyogenes, 2, 24 h
Streptococcus pyogenes [11] = assay: Potency index, ratio of CAM MIC to compound MIC for antibacterial activity against erythromycin-resistant Streptococcus pyogenes 2
Streptococcus pyogenes [12] = assay: Potency index, ratio of AZM MIC to compound MIC for antibacterial activity against erythromycin-resistant Streptococcus pyogenes 2

Row | Structure (SMILES) | MIC (Staphylococcus aureus [1]) | MIC (Staphylococcus aureus [2]) | MIC (Streptococcus pneumoniae [3]) | MIC (Streptococcus pneumoniae [4]) | MIC (Staphylococcus aureus [5]) | Ratio (Staphylococcus aureus [6]) | MIC (Streptococcus pyogenes [7]) | MIC (Bacillus subtilis) | MIC (Streptococcus pneumoniae [8]) | MIC (Pseudomonas aeruginosa) | Ratio (Staphylococcus aureus [9]) | MIC (Escherichia coli) | MIC (Streptococcus pyogenes [10]) | Ratio (Streptococcus pyogenes [11]) | Ratio (Streptococcus pyogenes [12])
1 | CC[C@H]1OC(=O)[C@H](C)[C@@H](OC(=O)NCc2ccccc2)[C@H](C)[C@@H](O[C@@H]2O[C@H](C)C[C@H](N(C)C)[C@H]2O)[C@](C)(OC)C[C@@H](C)/C(=N/OCc2ccccc2Cl)[C@H](C)[C@@H](O)[C@]1(C)O | 128 µg/mL (≈ 148 µM) | 4 µg/mL (≈ 4.64 µM) | 0.5 µg/mL (≈ 0.58 µM) | 128 µg/mL (≈ 148 µM) | 8 µg/mL (≈ 9.28 µM) | 64 | 2 µg/mL (≈ 2.32 µM) | 2 µg/mL (≈ 2.32 µM) | 128 µg/mL (≈ 148 µM) | 128 µg/mL (≈ 148 µM) | 64 | 128 µg/mL (≈ 148 µM) | 16 µg/mL (≈ 18.6 µM) |  | 
2 | CC[C@H]1OC(=O)[C@H](C)[C@@H](OC(=O)NCCc2ccccc2Cl)[C@H](C)[C@@H](O[C@@H]2O[C@H](C)C[C@H](N(C)C)[C@H]2O)[C@](C)(OC)C[C@@H](C)/C(=N/OCc2ccccc2Cl)[C@H](C)[C@@H](O)[C@]1(C)O | 128 µg/mL (≈ 141 µM) | 8 µg/mL (≈ 8.78 µM) | 1 µg/mL (≈ 1.1 µM) | 128 µg/mL (≈ 141 µM) | 8 µg/mL (≈ 8.78 µM) |  | 2 µg/mL (≈ 2.2 µM) | 2 µg/mL (≈ 2.2 µM) | 128 µg/mL (≈ 141 µM) | 128 µg/mL (≈ 141 µM) |  | 128 µg/mL (≈ 141 µM) | 16 µg/mL (≈ 17.6 µM) |  | 
3 | CC[C@H]1OC(=O)[C@H](C)[C@@H](O)[C@H](C)[C@@H](O[C@@H]2O[C@H](C)C[C@H](N(C)C)[C@H]2O)[C@](C)(OC)C[C@@H](C)/C(=N/OCc2ccccc2Cl)[C@H](C)[C@@H](O)[C@]1(C)O | 128 µg/mL (≈ 175 µM) | 32 µg/mL (≈ 43.9 µM) | 4 µg/mL (≈ 5.48 µM) | 128 µg/mL (≈ 175 µM) | 64 µg/mL (≈ 87.7 µM) |  | 4 µg/mL (≈ 5.48 µM) | 16 µg/mL (≈ 21.9 µM) | 128 µg/mL (≈ 175 µM) | 128 µg/mL (≈ 175 µM) |  | 128 µg/mL (≈ 175 µM) | 128 µg/mL (≈ 175 µM) |  | 
4 | CCCCNC(=O)O[C@H]1[C@H](C)[C@@H](O[C@@H]2O[C@H](C)C[C@H](N(C)C)[C@H]2O)[C@](C)(OC)C[C@@H](C)/C(=N/OCc2ccccc2Cl)[C@H](C)[C@@H](O)[C@](C)(O)[C@@H](CC)OC(=O)[C@@H]1C | 128 µg/mL (≈ 154 µM) | 8 µg/mL (≈ 9.66 µM) | 0.5 µg/mL (≈ 0.604 µM) | 128 µg/mL (≈ 154 µM) | 4 µg/mL (≈ 4.83 µM) |  | 1 µg/mL (≈ 1.21 µM) | 2 µg/mL (≈ 2.41 µM) | 128 µg/mL (≈ 154 µM) | 128 µg/mL (≈ 154 µM) |  | 128 µg/mL (≈ 154 µM) | 8 µg/mL (≈ 9.66 µM) | 32 | 32
5 | CC[C@H]1OC(=O)[C@H](C)[C@@H](OC(=O)NCCc2ccc(O)cc2)[C@H](C)[C@@H](O[C@@H]2O[C@H](C)C[C@H](N(C)C)[C@H]2O)[C@](C)(OC)C[C@@H](C)/C(=N/OCc2ccccc2Cl)[C@H](C)[C@@H](O)[C@]1(C)O | 128 µg/mL (≈ 143 µM) | 4 µg/mL (≈ 4.48 µM) | 0.25 µg/mL (≈ 0.28 µM) | 128 µg/mL (≈ 143 µM) | 4 µg/mL (≈ 4.48 µM) |  | 0.5 µg/mL (≈ 0.56 µM) | 1 µg/mL (≈ 1.12 µM) | 128 µg/mL (≈ 143 µM) | 128 µg/mL (≈ 143 µM) |  | 128 µg/mL (≈ 143 µM) | 8 µg/mL (≈ 8.96 µM) | 32 | 32
6 | CC[C@H]1OC(=O)[C@H](C)[C@@H](O[C@H]2C[C@@](C)(OC)[C@@H](O)[C@H](C)O2)[C@H](C)[C@@H](O[C@@H]2O[C@H](C)C[C@H](N(C)C)[C@H]2O)[C@](C)(O)C[C@@H](C)CN(C)[C@H](C)[C@@H](O)[C@]1(C)O [AZITHROMYCIN] | 8 µg/mL (≈ 10.7 µM) | 256 µg/mL (≈ 342 µM) | 4 µg/mL (≈ 5.34 µM) | 128 µg/mL (≈ 171 µM) | 0.25 µg/mL (≈ 0.334 µM) |  | 0.03 µg/mL (≈ 0.0401 µM) | 0.5 µg/mL (≈ 0.668 µM) | 128 µg/mL (≈ 171 µM) | 16 µg/mL (≈ 21.4 µM) |  | 8 µg/mL (≈ 10.7 µM) | 256 µg/mL (≈ 342 µM) |  | 
7 | CC[C@H]1OC(=O)[C@H](C)[C@@H](O[C@H]2C[C@@](C)(OC)[C@@H](O)[C@H](C)O2)[C@H](C)[C@@H](O[C@@H]2O[C@H](C)C[C@H](N(C)C)[C@H]2O)[C@](C)(OC)C[C@@H](C)C(=O)[C@H](C)[C@@H](O)[C@]1(C)O [CLARITHROMYCIN] | 64 µg/mL (≈ 85.6 µM) | 256 µg/mL (≈ 342 µM) | 2 µg/mL (≈ 2.67 µM) | 128 µg/mL (≈ 171 µM) | 0.25 µg/mL (≈ 0.334 µM) |  | 0.03 µg/mL (≈ 0.0401 µM) | 0.25 µg/mL (≈ 0.334 µM) | 128 µg/mL (≈ 171 µM) | 32 µg/mL (≈ 42.8 µM) |  | 32 µg/mL (≈ 42.8 µM) | 256 µg/mL (≈ 342 µM) |  | 
